Results: ChEMBL document CHEMBL1201862, “PubChem BioAssay data set” (2004)
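Interpolation was linear, between the two tested concentrations surrounding the appropriate level; five concentrations were tested over 48 hours in 96-well plates. Abbreviation: GI50, concentration required for 50% inhibition of growth.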 The source made the active and inactive calls. Cut-off read from the data, not from the text of the source: active = GI50 up to about 1.1 µM and inactive = higher.

Tests used:
Experiment in all cases: inhibition of tumour cell growth, NCI panel, 48 h
DMS-114 = test system: DMS-114
RXF 631 = test system: RXF 631
XF498 = test system: XF498
DLD-1 = test system: DLD-1
HOP-18 = test system: HOP-18
M19-MEL = test system: M19-MEL
DMS-273 = test system: DMS-273
KM-20L2 = test system: KM-20L2

Measured: GI50

CCOC(=O)C1=C(C)NC2=C(C(=O)N(c3ccccc3)C2c2ccccc2)C1c1ccccc1 (configuration not stated)
inactive: DMS-114 16.7 µM | RXF 631 16.1 µM | XF498 18.1 µM | DLD-1 16.5 µM | HOP-18 20.4 µM | M19-MEL 17.3 µM

CCOP(=O)(OCC)C1CCCOC1=O (configuration not stated)
inactive: DMS-273 > 100 µM | DMS-114 > 100 µM | RXF 631 > 100 µM | XF498 > 100 µM | KM-20L2 > 100 µM | DLD-1 > 100 µM | HOP-18 > 100 µM | M19-MEL > 100 µM

CC1OC(OCC2COC(O)(Oc3c(-c4ccc(O)c(O)c4)oc4cc(O)cc(O)c4c3=O)C(O)C2O)C(O)C(O)C1O (configuration not stated)
inactive: DMS-273 > 100 µM | DMS-114 > 100 µM | RXF 631 > 100 µM | XF498 > 100 µM | KM-20L2 > 100 µM | DLD-1 > 100 µM | HOP-18 > 100 µM | M19-MEL > 100 µM

Cc1cc(Br)ccc1/N=N/C1C(=O)ON=C1c1ccccc1 (configuration not stated)
inactive: DMS-273 > 100 µM | DMS-114 65.6 µM | RXF 631 51.6 µM | KM-20L2 55.2 µM | DLD-1 90.2 µM | HOP-18 > 100 µM | M19-MEL 67.6 µM

C(=C\C(Sc1ccccc1)c1ccccc1)/NNC1=NN=C(c2ccccc2)C(c2ccccc2)N1 (configuration not stated)
inactive: DMS-273 44.6 µM | DMS-114 35.8 µM | RXF 631 30.5 µM | XF498 77.1 µM | KM-20L2 24.8 µM | DLD-1 18.2 µM | HOP-18 > 100 µM | M19-MEL 27.7 µM
